What was measured:
[1] = Cytotoxicity against human HepG2.2.15 cells by MTT assay; assay type: cell-based, HepG2 2.2.15
Hepatitis B virus [2] = experiment: Antiviral activity against HBV infected in human HepG2.2.15 cells assessed as inhibition of hepatitis B e antigen secretion by ELISA; assay type: functional, organism-based; conditions: HepG2 2.2.15
Hepatitis B virus [3] = experiment: Antiviral activity against HBV infected in human HepG2.2.15 cells assessed as inhibition of DNA replication; assay type: functional, organism-based; conditions: HepG2 2.2.15
[4] = Selectivity index, ratio of CC50 for human HepG2.2.15 cells to IC50 for HBV infected in human HepG2.2.15 cells assessed as inhibition of DNA replication; assay type: functional
Hepatitis B virus [5] = experiment: Antiviral activity against HBV infected in human HepG2.2.15 cells assessed as inhibition of hepatitis B surface antigen secretion by ELISA; assay type: functional, organism-based; conditions: HepG2 2.2.15
[6] = Selectivity index, ratio of CC50 for human HepG2.2.15 cells to IC50 for HBV infected in human HepG2.2.15 cells assessed as inhibition of hepatitis B e antigen secretion; assay type: functional
[7] = Selectivity index, ratio of CC50 for human HepG2.2.15 cells to IC50 for HBV infected in human HepG2.2.15 cells assessed as inhibition of hepatitis B surface antigen secretion; assay type: functional

IC50 (Hepatitis B virus [2])	IC50 (Hepatitis B virus [3])	IC50 (Hepatitis B virus [5])	Compound	CC50 [1]	Ratio CC50/IC50 [4]	Ratio CC50/IC50 [6]	Ratio CC50/IC50 [7]
> 974 µM	16.3 µM	> 1140 µM	C=C1CC[C@@H]2[C@](C)(COC(=O)c3cccnc3)[C@H](O)CC[C@@]2(C)[C@@H]1C/C=C1\C=COC1=O	2050 µM	126		
217 µM	> 584 µM	> 2310 µM	C=C1CC[C@@H]2[C@](C)(COC(=O)c3cccnc3OC)[C@H](O)CC[C@@]2(C)[C@@H]1/C=C/C1=CCOC1=O	1340 µM		6.2	
293 µM	39.4 µM	1320 µM	C=C1CC[C@@H]2[C@](C)(COC(=O)c3ccccc3C(=O)O)[C@H](O)CC[C@@]2(C)[C@@H]1C/C=C1\C=COC1=O	450 µM	11.4	1.5	
> 2200 µM	8.1 µM	41 µM	C=C1CC[C@@H]2[C@](C)(CO)[C@H](OC(=O)c3cccs3)CC[C@@]2(C)[C@@H]1C/C=C1\C=COC1=O	257 µM	31.8		6.2
208 µM	69.8 µM	625 µM	C=C1CC[C@@H]2[C@](C)(CO)[C@H](OC(=O)CCCC)CC[C@@]2(C)[C@@H]1C/C=C1\C=COC1=O	126 µM	1.82		
243 µM	47.6 µM	1160 µM	C=C1CC[C@@H]2[C@](C)(COC(=O)CCC(=O)O)[C@H](OC(=O)CCC(=O)O)CC[C@@]2(C)[C@@H]1C/C=C1\C=COC1=O	32 µM			
118 µM	21.6 µM	877 µM	C=C1CC[C@@H]2[C@](C)(CO)[C@H](OC(=O)c3ccccc3)CC[C@@]2(C)[C@@H]1C/C=C1\C=COC1=O	103 µM	4.8		
> 1710 µM	> 429 µM	> 1710 µM	C=C1CC[C@@H]2[C@](C)(COC(=O)CCCC(=O)O)[C@H](OC(=O)CCCC(=O)O)CC[C@@]2(C)[C@@H]1/C=C/C1=CCOC1=O	> 1710 µM			
815 µM	51.3 µM	951 µM	C=C1CC[C@H]2[C@@](C)(CCC(=O)[C@@]2(C)C=O)[C@@H]1C/C=C1/C(=O)OC[C@H]1O	155 µM	3		
714 µM	38.4 µM	261 µM	C=C1CC[C@@H]2[C@](C)(CO)[C@H](OC(=O)c3cccnc3)CC[C@@]2(C)[C@@H]1C/C=C1\C=COC1=O	337 µM	8.8		1.3
1170 µM	30.7 µM	466 µM	C=C1CC[C@@H]2[C@](C)(CO)[C@H](OC(=O)/C=C/c3ccccc3)CC[C@@]2(C)[C@@H]1C/C=C1\C=COC1=O	179 µM	5.8		
1390 µM	455 µM	1010 µM	C=C1CC[C@@H]2[C@](C)(COC(C)=O)[C@H](OC(C)=O)CC[C@@]2(C)[C@@H]1/C=C/C1=CCOC1=O	757 µM			
	104 µM		C=C1CC[C@@H]2[C@](C)(COC(=O)c3ccccc3C(=O)O)[C@H](OC(=O)c3ccccc3C(=O)O)CC[C@@]2(C)[C@@H]1/C=C/C1=CCOC1=O	> 1620 µM	>15.6		
177 µM	36.6 µM		C=C1CC[C@@H]2[C@](C)(COC(=O)c3cc(=O)c4ccccc4o3)[C@H](O)CC[C@@]2(C)[C@@H]1/C=C/C1=CCOC1=O	171 µM	4.7	1	
59.8 µM	136 µM	207 µM	C=C1CC[C@@H]2[C@](C)(COC(=O)/C=C/c3cccc(Cl)c3)[C@H](O)CC[C@@]2(C)[C@@H]1/C=C/C1=CCOC1=O	147 µM		2.5	
> 1920 µM	> 664 µM	> 1920 µM	C=C1CC[C@@H]2[C@](C)(COC(=O)c3cccnc3)[C@H](OC(=O)c3cccnc3)CC[C@@]2(C)[C@@H]1/C=C/C1=CCOC1=O	> 1920 µM			
	22.3 µM		C=C1CC[C@@H]2[C@](C)(COC(=O)/C=C/c3cc(OC)c(OC)c(OC)c3)[C@H](O)CC[C@@]2(C)[C@@H]1C/C=C1\C=COC1=O	325 µM	14.6		
> 1930 µM	> 483 µM	> 1930 µM	C=C1CC[C@@H]2[C@](C)(COC(=O)COCC(=O)O)[C@H](OC(=O)COCC(=O)O)CC[C@@]2(C)[C@@H]1/C=C/C1=CCOC1=O	> 1930 µM			
	23.2 µM		C=C1CC[C@@H]2[C@](C)(CO)[C@H](O)CC[C@@]2(C)[C@@H]1C/C=C(/C(=O)O)[C@H](O)CO	182 µM	7.8		

IC50 (Hepatitis B virus [2])	IC50 (Hepatitis B virus [3])	IC50 (Hepatitis B virus [5])	Compound	CC50 [1]	Ratio CC50/IC50 [4]	Ratio CC50/IC50 [6]	Ratio CC50/IC50 [7]
	78 µM	1290 µM	C[C@]1(CO)[C@H]2CC[C@@]3(CO3)[C@@H](/C=C/C3=CCOC3=O)[C@]2(C)CC[C@H]1O	1840 µM	23.6		1.4
> 253 µM	> 458 µM	> 1830 µM	C=C1CC[C@@H]2[C@](C)(COC(=O)/C=C/c3cc(OC)c(OC)c(OC)c3)[C@H](OC(=O)/C=C/c3cc(OC)c(OC)c(OC)c3)CC[C@@]2(C)[C@@H]1C/C=C1\C=COC1=O	> 1830 µM			
	0.71 µM	1390 µM	C[C@H](Cn1cnc2c(N)ncnc21)OCP(=O)(O)O [TENOFOVIR ANHYDROUS]	> 1720 µM	>2417.3	>1.4	>1.2
1480 µM	> 513 µM	> 1970 µM	C=C1CC[C@@H]2[C@](C)(COC(=O)/C=C/c3cccc(OC)c3)[C@H](O)CC[C@@]2(C)[C@@H]1/C=C/C1=CCOC1=O	> 1970 µM			
562 µM	394 µM		C=C1CC[C@@H]2[C@](C)(CO)[C@H](O)CC[C@@]2(C)[C@@H]1/C=C/C1=CC(C(C)(C)O)OC1=O (stereo not given in full)	122 µM			
> 949 µM	21.4 µM		C=C1CC[C@@H]2[C@](C)(COC(=O)c3ccco3)[C@H](O)CC[C@@]2(C)[C@@H]1C/C=C1\C=COC1=O	> 2150 µM	>100.5		
1220 µM		1640 µM	C=C1CC[C@@H]2[C@](C)(COC(=O)c3cccs3)[C@H](OC(=O)c3cccs3)CC[C@@]2(C)[C@@H]1C/C=C1\C=COC1=O	1370 µM		1.1	
586 µM	25.2 µM	777 µM	C=C1CC[C@@H]2[C@](C)(CO)[C@H](OC(=O)c3ccco3)CC[C@@]2(C)[C@@H]1C/C=C1\C=COC1=O	42 µM	1.7		
1950 µM	13.4 µM	1840 µM	C=C1CC[C@@H]2[C@](C)(C=O)[C@H](O)CC[C@@]2(C)[C@@H]1/C=C/C1=CCOC1=O	122 µM	9.1		
518 µM	53.1 µM	753 µM	C=C1CC[C@@H]2[C@](C)(CO)[C@H](OC(=O)/C=C/c3cc(OC)c(OC)c(OC)c3)CC[C@@]2(C)[C@@H]1C/C=C1\C=COC1=O	211 µM	3		
516 µM	46.6 µM	210 µM	C=C1CC[C@@H]2[C@](C)(COC(=O)/C=C/c3ccccc3)[C@H](O)CC[C@@]2(C)[C@@H]1C/C=C1\C=COC1=O	271 µM	5.8		
123 µM	20.6 µM	880 µM	C=C1CC[C@@H]2[C@](C)(COC(=O)c3ccccc3)[C@H](O)CC[C@@]2(C)[C@@H]1C/C=C1\C=COC1=O	82 µM	4		
2230 µM	69.5 µM	565 µM	C=C1CC[C@@H]2[C@](C)(COC(=O)CCCC)[C@H](O)CC[C@@]2(C)[C@@H]1C/C=C1\C=COC1=O	225 µM	3.2		
	263 µM	394 µM	C=C1CC[C@H]2[C@@](C)(CCC(=O)[C@@]2(C)C=O)[C@@H]1/C=C/C1=CCOC1=O	275 µM	1.1		
1860 µM	242 µM	1410 µM	C=C1CC[C@@H]2[C@](C)(COC(=O)c3ccco3)[C@H](OC(=O)c3ccco3)CC[C@@]2(C)[C@@H]1/C=C/C1=CCOC1=O	1110 µM	4.6		
218 µM	22 µM		C=C1CC[C@@H]2[C@](C)(COC(=O)c3ccccc3C(=O)O)[C@H](OC(=O)c3ccccc3C(=O)O)CC[C@@]2(C)[C@@H]1C/C=C1\C=COC1=O	> 2040 µM	>92.8	>9.4	
1390 µM	455 µM	1010 µM	C=C1CC[C@@H]2[C@](C)(COC(=O)CCCC)[C@H](OC(=O)CCCC)CC[C@@]2(C)[C@@H]1C/C=C1\C=COC1=O	757 µM			
	169 µM	518 µM	C=C1CC[C@H]2[C@@](C)(CCC(=O)[C@@]2(C)C=O)[C@@H]1C/C=C1\C=COC1=O	964 µM	5.7		1.9
2230 µM	69.5 µM	565 µM	C=C1CC[C@@H]2[C@](C)(COC(C)=O)[C@H](O)CC[C@@]2(C)[C@@H]1/C=C/C1=CCOC1=O	225 µM	3.2		
